{
  "source": "patent US11787780B2",
  "about": "(CORCEPT THERAPEUTICS INCORPORATED, priority 2020, dated 2023)",
  "key": {"[1]": {"test_system": "induction of TAT by dexamethasone in HepG2 cells", "test": "Hep G2 TAT assay (inhibition of dexamethasone-induced TAT)", "assay_type": "cell-based, human", "settings": "challenge of 100 nM dexamethasone, IC50 converted to Ki by Cheng and Prusoff equation"}, "[2]": {"molecular_target": "glucocorticoid receptor (GR) recombinant ligand binding domain (LBD) (Homo sapiens (Human), UniProt P04150)", "sequence (P04150 524-758)": "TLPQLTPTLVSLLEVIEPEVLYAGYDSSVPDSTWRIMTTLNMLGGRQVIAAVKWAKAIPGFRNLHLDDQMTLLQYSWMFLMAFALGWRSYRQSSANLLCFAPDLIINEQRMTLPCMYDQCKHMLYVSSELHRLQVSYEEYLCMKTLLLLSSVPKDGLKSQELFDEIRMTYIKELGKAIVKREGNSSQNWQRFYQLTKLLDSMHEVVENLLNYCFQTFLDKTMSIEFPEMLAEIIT", "test": "GR binding fluorescence polarisation (FP) assay", "settings": "displacement of fluorescently tagged ligand", "procedure": "Binding of test compounds to the glucocorticoid receptor (GR) is determined using a fluorescence polarisation (FP) assay utilising a recombinant ligand binding domain (LBD) of GR. The test compounds are assessed by their ability to displace a fluorescently tagged ligand and detection of the resulting decrease in fluorescence polarisation."}},
  "note": "pIC50, pKi: −log10 of the molar value.",
  "data": [
    {"smiles": "Cc1cc2c(cnn2-c2cnn(C(F)(F)F)c2)cc1C1(Cc2ccccc2)CCN(S(=O)(=O)c2cnn(C)n2)C1", "note": "(centres unmarked) [Example 254, 5-(3-benzyl-1-((2-methyl-2H-1,2,3-triazol-4-yl)sulfonyl)pyrrolidin-3-yl)-6-methyl-1-(1-(trifluoromethyl)-1H-pyrazol-4-yl)-1H-indazole]", "values": [
      {"measurement": "pKi", "setting": "[1]", "result": 7.36},
      {"measurement": "pIC50", "setting": "[2]", "result": 7.06}
    ]},
    {"smiles": "[2H]C([2H])([2H])n1ncc(S(=O)(=O)N2CCC(Cc3ccccc3)(c3cc4cnn(-c5ccc(=O)n(C)c5)c4cc3C)C2)n1", "note": "(centres unmarked) [Example 296, 5-(5-(3-benzyl-1-((2-(methyl-d3)-2H-1,2,3-triazol-4-yl)sulfonyl)pyrrolidin-3-yl)-6-methyl-1H-indazol-1-yl)-1-methylpyridin-2(1H)-one]", "values": [
      {"measurement": "pKi", "setting": "[1]", "result": 7.36},
      {"measurement": "pIC50", "setting": "[2]", "result": 8.16}
    ]},
    {"smiles": "Cc1cc2c(cnn2-c2ccc(F)cc2)cc1C1(Cc2ccccc2)CCN(C)C1", "note": "(centres unmarked) [Example 20, 5-(3-benzyl-1-methylpyrrolidin-3-yl)-1-(4-fluorophenyl)-6-methyl-1H-indazole]", "values": [
      {"measurement": "pKi", "setting": "[1]", "result": 6.63},
      {"measurement": "pIC50", "setting": "[2]", "result": 8.10}
    ]},
    {"smiles": "Cc1cc2c(cnn2-c2ccc(F)cc2)cc1C1(Cc2ccc(C(F)(F)F)cc2)CCN(S(=O)(=O)c2cnn(C)c2)C1", "note": "(centres unmarked) [Example 178]", "values": [
      {"measurement": "pKi", "setting": "[1]", "result": 7.52},
      {"measurement": "pIC50", "setting": "[2]", "result": 6.71}
    ]},
    {"smiles": "Cc1cc2c(cnn2-c2ccc(=O)n(C(F)F)c2)cc1C1(Cc2ccccc2)CCN(S(=O)(=O)c2cnn(C)n2)C1", "note": "(centres unmarked) [Example 247, 5-(5-(3-benzyl-1-((2-methyl-2H-1,2,3-triazol-4-yl)sulfonyl)pyrrolidin-3-yl)-6-methyl-1H-indazol-1-yl)-1-(difluoromethyl)pyridin-2(1H)-one]", "values": [
      {"measurement": "pKi", "setting": "[1]", "result": 6.62},
      {"measurement": "pIC50", "setting": "[2]", "result": 7.26}
    ]},
    {"smiles": "CCCn1cc(S(=O)(=O)N2CCC(Cc3cccnc3)(c3cc4cnn(-c5ccc(F)cc5)c4cc3C)C2)cn1", "note": "(centres unmarked) [Example 149]", "values": [
      {"measurement": "pKi", "setting": "[1]", "result": 6.97},
      {"measurement": "pIC50", "setting": "[2]", "result": 7.89}
    ]},
    {"smiles": "Cc1cc2c(cnn2-c2ccc(F)cc2)cc1N1CCC(C)(NS(C)(=O)=O)CC1", "note": "[Example 130]", "values": [
      {"measurement": "pKi", "setting": "[1]", "result": 6.84},
      {"measurement": "pIC50", "setting": "[2]", "result": 8.10}
    ]},
    {"smiles": "Cc1cc2c(cnn2-c2ccc(=O)n(C)c2)cc1C1(Cc2ccccc2)CCN(S(=O)(=O)c2cn(C)cn2)C1", "note": "(centres unmarked) [Example 290, 5-(5-(3-benzyl-1-((1-methyl-1H-imidazol-4-yl)sulfonyl)pyrrolidin-3-yl)-6-methyl-1H-indazol-1-yl)-1-methylpyridin-2(1H)-one]", "values": [
      {"measurement": "pKi", "setting": "[1]", "result": 6.70},
      {"measurement": "pIC50", "setting": "[2]", "result": 7.21}
    ]},
    {"smiles": "Cc1cc2c(cnn2-c2cnn(C(F)F)c2)cc1C1(Cc2ccccc2)CCN(S(=O)(=O)c2cnn(C)n2)C1", "note": "(centres unmarked) [Example 255, 5-(3-benzyl-1-((2-methyl-2H-1,2,3-triazol-4-yl)sulfonyl)pyrrolidin-3-yl)-1-(1-(difluoromethyl)-1H-pyrazol-4-yl)-6-methyl-1H-indazole]", "values": [
      {"measurement": "pKi", "setting": "[1]", "result": 7.36},
      {"measurement": "pIC50", "setting": "[2]", "result": 7.57}
    ]},
    {"smiles": "Cc1cc2c(cnn2-c2ccc(=O)n(C)c2)cc1C1(Cc2ccccc2)CCN(C(=O)c2ccnnc2)C1", "note": "(centres unmarked) [Example 327, 5-(5-(3-benzyl-1-(pyridazine-4-carbonyl)pyrrolidin-3-yl)-6-methyl-1H-indazol-1-yl)-1-methylpyridin-2(1H)-one]", "values": [
      {"measurement": "pKi", "setting": "[1]", "result": 6.27},
      {"measurement": "pIC50", "setting": "[2]", "result": 6.77}
    ]},
    {"smiles": "Cc1cc2c(cnn2-c2ccc(=O)n(C)c2)cc1C1(Cc2ccccc2)CCN(C(=O)C2CC2)C1", "note": "(centres unmarked) [Example 332, 5-(5-(3-benzyl-1-(cyclopropanecarbonyl)pyrrolidin-3-yl)-6-methyl-1H-indazol-1-yl)-1-methylpyridin-2(1H)-one]", "values": [
      {"measurement": "pKi", "setting": "[1]", "result": 6.80},
      {"measurement": "pIC50", "setting": "[2]", "result": 7.70}
    ]},
    {"smiles": "CCCn1cc(S(=O)(=O)N2CC=C(c3cc4cnn(-c5ccc(F)cc5)c4cc3C(C)C)CC2)cn1", "note": "[Example 141]", "values": [
      {"measurement": "pKi", "setting": "[1]", "result": 6.31},
      {"measurement": "pIC50", "setting": "[2]", "result": 5.37}
    ]},
    {"smiles": "[2H]C([2H])([2H])n1cc(-n2ncc3cc(C4(Cc5ccccc5)CCN(S(=O)(=O)c5cnn(C)n5)C4)c(C)cc32)ccc1=O", "note": "(centres unmarked) [Example 261, 5-(5-(3-benzyl-1-((2-methyl-2H-1,2,3-triazol-4-yl)sulfonyl)pyrrolidin-3-yl)-6-methyl-1H-indazol-1-yl)-1-(methyl-d3)pyridin-2(1H)-one]", "values": [
      {"measurement": "pKi", "setting": "[1]", "result": 7.36},
      {"measurement": "pIC50", "setting": "[2]", "result": 8.54}
    ]},
    {"smiles": "Cc1cc2c(cnn2-c2ccc(=O)n(C)c2)cc1C1(Cc2ccccc2)CN(S(=O)(=O)c2cnn(C)n2)CC1C", "note": "(centres unmarked) [Example 335, 5-(5-(3-benzyl-4-methyl-1-((2-methyl-2H-1,2,3-triazol-4-yl)sulfonyl)pyrrolidin-3-yl)-6-methyl-1H-indazol-1-yl)-1-methylpyridin-2(1H)-one]", "values": [
      {"measurement": "pKi", "setting": "[1]", "result": 7.34},
      {"measurement": "pIC50", "setting": "[2]", "result": 7.96}
    ]},
    {"smiles": "CNS(=O)(=O)C1CCN(c2cc3cnn(-c4ccc(F)cc4)c3cc2C)C1", "note": "(centres unmarked) [Example 28, 1-(1-(4-fluorophenyl)-6-methyl-1H-indazol-5-yl)-N-methylpyrrolidine-3-sulfonamide]", "values": [
      {"measurement": "pKi", "setting": "[1]", "result": 5.97},
      {"measurement": "pIC50", "setting": "[2]", "result": 6.94}
    ]},
    {"smiles": "Cc1ccc(S(=O)(=O)N2CCC(Cc3ccccc3)(c3cc4cnn(-c5ccc(=O)n(C)c5)c4cc3C)C2)cn1", "note": "(centres unmarked) [Example 299, 5-(5-(3-benzyl-1-((6-methylpyridin-3-yl)sulfonyl)pyrrolidin-3-yl)-6-methyl-1H-indazol-1-yl)-1-methylpyridin-2(1H)-one]", "values": [
      {"measurement": "pKi", "setting": "[1]", "result": 7.32},
      {"measurement": "pIC50", "setting": "[2]", "result": 8.06}
    ]},
    {"smiles": "Cc1cc2c(cnn2-c2ccc(F)cc2)cc1C1(Cc2cccc(C(F)(F)F)c2)CCN(S(C)(=O)=O)C1", "note": "(centres unmarked) [Example 175]", "values": [
      {"measurement": "pKi", "setting": "[1]", "result": 7.70},
      {"measurement": "pIC50", "setting": "[2]", "result": 7.62}
    ]},
    {"smiles": "Cc1cc2c(cnn2-c2ccc(=O)n(C)c2)cc1C1(Cc2ccc(F)cc2)CCN(S(=O)(=O)c2cnn(C)c2)C1", "note": "(centres unmarked) [Example 323, 5-(5-(3-(4-fluorobenzyl)-1-((1-methyl-1H-pyrazol-4-yl)sulfonyl)pyrrolidin-3-yl)-6-methyl-1H-indazol-1-yl)-1-methylpyridin-2(1H)-one]", "values": [
      {"measurement": "pKi", "setting": "[1]", "result": 7.01},
      {"measurement": "pIC50", "setting": "[2]", "result": 7.92}
    ]},
    {"smiles": "CCn1cc(S(=O)(=O)N2CCC(Cc3ccc(F)cc3)(c3cc4cnn(-c5ccc(F)cc5)c4cc3OC)C2)cn1", "note": "(centres unmarked) [Example 217, 5-(1-((1-ethyl-1H-pyrazol-4-yl)sulfonyl)-3-(4-fluorobenzyl)pyrrolidin-3-yl)-1-(4-fluorophenyl)-6-methoxy-1H-indazole]", "values": [
      {"measurement": "pKi", "setting": "[1]", "result": 7.85},
      {"measurement": "pIC50", "setting": "[2]", "result": 7.77}
    ]},
    {"smiles": "C[C@@H]1CN(c2ccc3c(cnn3-c3ccc(F)cc3)c2)CCN1S(=O)(=O)c1ccnn1C", "note": "[Example 65]", "values": [
      {"measurement": "pKi", "setting": "[1]", "result": 5.83},
      {"measurement": "pIC50", "setting": "[2]", "result": 6.48}
    ]},
    {"smiles": "COCCN([C@@H]1CCN(c2cc3cnn(-c4ccc(F)cc4)c3cc2C)C1)S(=O)(=O)c1cnn(C)c1", "note": "[Example 121]", "values": [
      {"measurement": "pKi", "setting": "[1]", "result": 6.92},
      {"measurement": "pIC50", "setting": "[2]", "result": 7.40}
    ]},
    {"smiles": "Cc1cc2c(cnn2-c2ccc(F)cc2)cc1N1CCN(C(=O)c2cnn(C)c2)C2(CC2)C1", "note": "[Example 100]", "values": [
      {"measurement": "pKi", "setting": "[1]", "result": 5.92},
      {"measurement": "pIC50", "setting": "[2]", "result": 6.63}
    ]},
    {"smiles": "COc1cc2c(cnn2-c2ccc(F)cc2)cc1N1CCN(S(C)(=O)=O)C2(CC2)C1", "note": "[Example 70]", "values": [
      {"measurement": "pKi", "setting": "[1]", "result": 5.80},
      {"measurement": "pIC50", "setting": "[2]", "result": 7.55}
    ]},
    {"smiles": "COCC1(c2cc3cnn(-c4ccc(F)cc4)c3cc2C)CCN(S(=O)(=O)c2cnn(C)c2)C1", "note": "(centres unmarked) [Example 340, 1-(4-fluorophenyl)-5-(3-(methoxymethyl)-1-((1-methyl-1H-pyrazol-4-yl)sulfonyl)pyrrolidin-3-yl)-6-methyl-1H-indazole]", "values": [
      {"measurement": "pKi", "setting": "[1]", "result": 6.09},
      {"measurement": "pIC50", "setting": "[2]", "result": 7.24}
    ]},
    {"smiles": "Cc1cc2c(cnn2-c2ccc(F)c(CO)c2)cc1C1(Cc2ccccc2)CCN(S(=O)(=O)c2cnn(C)n2)C1", "note": "(centres unmarked) [Example 242, (5-(5-(3-benzyl-1-((2-methyl-2H-1,2,3-triazol-4-yl)sulfonyl)pyrrolidin-3-yl)-6-methyl-1H-indazol-1-yl)-2-fluorophenyl)methanol]", "values": [
      {"measurement": "pKi", "setting": "[1]", "result": 7.36},
      {"measurement": "pIC50", "setting": "[2]", "result": 7.74}
    ]}
  ]
}
